Source: publication PMC9191647 (Neuropharmacology, 2019)
Several values for one entry are separate records, joined by “and”; a condition that tells them apart may be missing. Equal entries are not always repeated.

Experiments:
[1] = biological target: α2A (Homo sapiens, UniProt P08913); test: Competitive radioligand binding
[2] = biological target: β3 (Homo sapiens, UniProt P13945); test: Competitive radioligand binding
[3] = biological target: T1, human 5-HT1A receptor (Homo sapiens, UniProt P08908); test: Competitive radioligand binding
T1 sequence (P08908 1-422): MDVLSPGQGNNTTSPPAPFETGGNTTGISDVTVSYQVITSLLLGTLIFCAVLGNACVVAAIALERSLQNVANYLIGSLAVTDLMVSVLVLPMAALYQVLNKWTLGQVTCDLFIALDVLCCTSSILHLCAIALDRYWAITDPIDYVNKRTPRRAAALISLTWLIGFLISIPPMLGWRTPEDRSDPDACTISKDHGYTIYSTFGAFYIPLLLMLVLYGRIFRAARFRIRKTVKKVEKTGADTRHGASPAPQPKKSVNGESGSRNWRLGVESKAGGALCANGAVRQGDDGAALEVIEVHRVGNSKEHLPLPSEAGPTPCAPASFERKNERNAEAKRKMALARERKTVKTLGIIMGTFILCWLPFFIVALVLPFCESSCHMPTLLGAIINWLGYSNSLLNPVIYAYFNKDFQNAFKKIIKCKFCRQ

[4] = biological target: T2, human 5-HT2C INI (h5-HT2C) (Homo sapiens, UniProt P28335); assay type: cell-based
T2 sequence (P28335 33-458): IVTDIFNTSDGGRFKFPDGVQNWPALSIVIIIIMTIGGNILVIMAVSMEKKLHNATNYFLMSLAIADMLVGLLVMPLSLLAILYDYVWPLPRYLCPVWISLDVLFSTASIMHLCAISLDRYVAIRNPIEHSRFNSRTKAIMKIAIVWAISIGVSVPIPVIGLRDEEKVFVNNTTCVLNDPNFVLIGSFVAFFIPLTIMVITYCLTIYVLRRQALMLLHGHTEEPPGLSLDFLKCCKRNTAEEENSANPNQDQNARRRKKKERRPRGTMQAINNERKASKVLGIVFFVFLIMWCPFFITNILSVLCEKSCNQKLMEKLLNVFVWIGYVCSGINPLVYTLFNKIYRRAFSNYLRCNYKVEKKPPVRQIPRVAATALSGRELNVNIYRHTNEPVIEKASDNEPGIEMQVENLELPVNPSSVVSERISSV

[5] = biological target: D5 (Homo sapiens, UniProt P21918); test: Competitive radioligand binding
[6] = biological target: H1 (Homo sapiens, UniProt P35367); test: Competitive radioligand binding
[7] = biological target: 5-HT5a (Homo sapiens, UniProt P47898); test: Competitive radioligand binding
[8] = system: male C57BL/6J mice; conditions: HTR, ref Brandt et al. (2019), cited from earlier work
[9] = biological target: H2 (Homo sapiens, UniProt P25021); test: Competitive radioligand binding
[10] = biological target: 5-HT1B (Homo sapiens, UniProt P28222); test: Competitive radioligand binding
[11] = biological target: D1 (Homo sapiens, UniProt P21728); test: Competitive radioligand binding
[12] = biological target: H4 (Homo sapiens, UniProt Q9H3N8); test: Competitive radioligand binding
[13] = biological target: α1A (Homo sapiens, UniProt P35348); test: Competitive radioligand binding
[14] = biological target: 5-HT7A (Homo sapiens, UniProt P34969); test: Competitive radioligand binding
[15] = biological target: T3, human 5-HT2C receptor (Homo sapiens, UniProt P28335); test: biochemical; assay type: binding
T3 sequence (P28335 33-458): T2 sequence (P28335 33-458)

[16] = biological target: D3 (Homo sapiens, UniProt P35462); test: Competitive radioligand binding
[17] = biological target: β2 (Homo sapiens, UniProt P07550); test: Competitive radioligand binding
[18] = system: male C57BL/6J mice; test: Head-twitch response; assay type: in vivo, mouse; conditions: HTR in mice
[19] = biological target: 5-HT1D (Homo sapiens, UniProt P28221); test: Competitive radioligand binding
[20] = biological target: α2B (Homo sapiens, UniProt P18089); test: Competitive radioligand binding
[21] = biological target: H3 (Cavia porcellus, UniProt Q9JI35); test: Competitive radioligand binding; parameters: species or system Guinea pig
[22] = biological target: α1D (Homo sapiens, UniProt P25100); test: Competitive radioligand binding
[23] = biological target: α1B (Homo sapiens, UniProt P35368); test: Competitive radioligand binding
[24] = biological target: 5-HT2B (Homo sapiens, UniProt P41595); test: Competitive radioligand binding
[25] = biological target: 5-HT6 (Homo sapiens, UniProt P50406); test: Competitive radioligand binding
[26] = biological target: human 5-HT2B (h5-HT2B) (Homo sapiens, UniProt P41595); test: Gq-mediated calcium flux in Flp-In T-REx 293 cells; assay type: cell-based; conditions: Ca^2+ flux
[27] = biological target: mouse 5-HT2A (m5-HT2A) (Mus musculus, UniProt P35363); test: Gq-mediated calcium flux in Flp-In T-REx 293 cells; assay type: cell-based
[28] = biological target: human 5-HT2A receptor (Homo sapiens, UniProt P28223); test: Competitive radioligand binding
[29] = biological target: α2C (Homo sapiens, UniProt P18825); test: Competitive radioligand binding
[30] = biological target: β1 (Homo sapiens, UniProt P08588); test: Competitive radioligand binding; parameters: species or system Human (heart)
[31] = biological target: D4 (Homo sapiens, UniProt P21917); test: Competitive radioligand binding
[32] = biological target: human 5-HT2A (h5-HT2A) (Homo sapiens, UniProt P28223); test: Gq-mediated calcium flux in Flp-In T-REx 293 cells; assay type: cell-based
[33] = biological target: D2 (Homo sapiens, UniProt P14416); test: Competitive radioligand binding

Sequence of human 5-HT2A (h5-HT2A) (P28223 whole entry): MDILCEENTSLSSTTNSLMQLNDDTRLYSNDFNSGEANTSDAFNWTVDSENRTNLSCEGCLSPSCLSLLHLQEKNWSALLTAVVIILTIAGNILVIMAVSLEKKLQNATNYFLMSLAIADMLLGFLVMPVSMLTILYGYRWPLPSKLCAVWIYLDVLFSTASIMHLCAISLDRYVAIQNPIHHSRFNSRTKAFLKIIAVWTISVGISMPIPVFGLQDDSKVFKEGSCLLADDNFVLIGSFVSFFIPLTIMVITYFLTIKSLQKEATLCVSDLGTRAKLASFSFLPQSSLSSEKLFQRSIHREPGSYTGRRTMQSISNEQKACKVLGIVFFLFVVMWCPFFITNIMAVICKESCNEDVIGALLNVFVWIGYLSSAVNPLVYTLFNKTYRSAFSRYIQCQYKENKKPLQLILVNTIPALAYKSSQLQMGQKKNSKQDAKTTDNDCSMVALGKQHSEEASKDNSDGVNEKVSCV
Sequence of mouse 5-HT2A (m5-HT2A) (P35363 whole entry): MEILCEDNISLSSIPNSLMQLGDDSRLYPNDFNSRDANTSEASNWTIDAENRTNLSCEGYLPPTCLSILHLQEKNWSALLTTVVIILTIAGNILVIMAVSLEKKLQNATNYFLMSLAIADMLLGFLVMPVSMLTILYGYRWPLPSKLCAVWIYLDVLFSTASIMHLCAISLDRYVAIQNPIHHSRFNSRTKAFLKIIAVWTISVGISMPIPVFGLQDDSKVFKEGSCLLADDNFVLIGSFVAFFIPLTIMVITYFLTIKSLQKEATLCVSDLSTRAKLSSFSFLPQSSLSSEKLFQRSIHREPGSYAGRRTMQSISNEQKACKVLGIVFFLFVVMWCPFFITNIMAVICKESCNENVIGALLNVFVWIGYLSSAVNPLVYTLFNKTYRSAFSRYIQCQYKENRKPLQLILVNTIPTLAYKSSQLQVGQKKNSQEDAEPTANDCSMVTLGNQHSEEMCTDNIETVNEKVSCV
Sequence of α1D (P25100 whole entry): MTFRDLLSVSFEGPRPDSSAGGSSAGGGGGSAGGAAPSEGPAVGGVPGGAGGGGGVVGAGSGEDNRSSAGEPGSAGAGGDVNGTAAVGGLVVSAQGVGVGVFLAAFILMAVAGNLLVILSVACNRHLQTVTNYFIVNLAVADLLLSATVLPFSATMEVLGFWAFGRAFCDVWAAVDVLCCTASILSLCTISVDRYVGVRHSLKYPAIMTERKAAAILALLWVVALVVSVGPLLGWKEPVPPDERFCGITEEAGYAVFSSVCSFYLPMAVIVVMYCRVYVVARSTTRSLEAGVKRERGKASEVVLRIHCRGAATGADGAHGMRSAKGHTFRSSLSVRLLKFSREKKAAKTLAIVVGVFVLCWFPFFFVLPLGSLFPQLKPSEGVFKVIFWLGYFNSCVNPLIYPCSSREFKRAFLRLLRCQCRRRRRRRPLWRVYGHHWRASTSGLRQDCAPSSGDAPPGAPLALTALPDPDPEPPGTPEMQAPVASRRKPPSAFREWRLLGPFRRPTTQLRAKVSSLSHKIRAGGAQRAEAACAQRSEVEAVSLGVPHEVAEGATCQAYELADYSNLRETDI
Sequence of 5-HT7A (P34969 1-445 isoform P34969-2): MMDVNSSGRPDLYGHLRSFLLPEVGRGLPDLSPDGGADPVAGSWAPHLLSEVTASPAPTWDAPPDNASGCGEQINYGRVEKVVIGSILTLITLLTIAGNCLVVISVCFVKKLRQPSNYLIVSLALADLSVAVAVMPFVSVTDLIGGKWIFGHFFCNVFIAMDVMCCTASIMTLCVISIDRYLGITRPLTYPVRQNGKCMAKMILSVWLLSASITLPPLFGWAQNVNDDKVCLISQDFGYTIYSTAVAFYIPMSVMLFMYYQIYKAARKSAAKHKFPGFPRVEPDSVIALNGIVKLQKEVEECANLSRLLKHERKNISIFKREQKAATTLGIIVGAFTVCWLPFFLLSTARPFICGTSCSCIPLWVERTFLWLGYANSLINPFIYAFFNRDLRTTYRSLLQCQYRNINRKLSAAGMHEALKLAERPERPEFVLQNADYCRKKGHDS
Sequence of α2C (P18825 whole entry): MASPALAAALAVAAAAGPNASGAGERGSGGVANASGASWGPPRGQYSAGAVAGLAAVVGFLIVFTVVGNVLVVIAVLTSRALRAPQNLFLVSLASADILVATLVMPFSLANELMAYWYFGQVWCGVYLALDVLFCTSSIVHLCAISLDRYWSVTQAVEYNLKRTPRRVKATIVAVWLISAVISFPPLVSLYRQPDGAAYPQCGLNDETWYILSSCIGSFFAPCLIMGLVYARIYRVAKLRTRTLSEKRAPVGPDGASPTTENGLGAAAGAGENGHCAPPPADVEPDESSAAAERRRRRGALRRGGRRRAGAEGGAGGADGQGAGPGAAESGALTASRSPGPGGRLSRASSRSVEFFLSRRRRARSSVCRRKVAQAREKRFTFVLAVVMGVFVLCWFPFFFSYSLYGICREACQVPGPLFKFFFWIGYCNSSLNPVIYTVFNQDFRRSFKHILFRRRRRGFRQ
Sequence of H3 (Q9JI35 whole entry): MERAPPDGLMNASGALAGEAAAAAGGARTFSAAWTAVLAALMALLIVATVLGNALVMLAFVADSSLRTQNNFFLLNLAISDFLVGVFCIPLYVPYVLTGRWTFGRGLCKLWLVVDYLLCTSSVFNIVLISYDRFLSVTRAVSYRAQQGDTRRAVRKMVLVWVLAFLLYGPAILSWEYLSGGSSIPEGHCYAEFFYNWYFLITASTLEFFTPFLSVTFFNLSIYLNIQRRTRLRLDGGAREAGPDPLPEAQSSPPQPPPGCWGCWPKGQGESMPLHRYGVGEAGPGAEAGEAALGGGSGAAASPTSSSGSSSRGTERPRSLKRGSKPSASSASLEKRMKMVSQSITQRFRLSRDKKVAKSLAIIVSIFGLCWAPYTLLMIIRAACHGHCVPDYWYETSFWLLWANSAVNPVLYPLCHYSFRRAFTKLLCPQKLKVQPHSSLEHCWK
Sequence of 5-HT1D (P28221 whole entry): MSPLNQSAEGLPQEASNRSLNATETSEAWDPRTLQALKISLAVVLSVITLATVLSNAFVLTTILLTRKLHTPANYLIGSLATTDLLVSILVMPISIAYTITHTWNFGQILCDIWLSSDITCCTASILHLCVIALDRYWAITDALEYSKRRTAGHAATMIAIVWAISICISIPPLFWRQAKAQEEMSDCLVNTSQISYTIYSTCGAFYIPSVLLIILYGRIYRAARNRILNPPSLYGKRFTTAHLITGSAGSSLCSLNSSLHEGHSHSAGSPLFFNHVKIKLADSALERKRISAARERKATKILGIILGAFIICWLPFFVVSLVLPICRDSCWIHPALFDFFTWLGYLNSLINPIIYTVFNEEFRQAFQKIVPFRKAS
Sequence of β1 (P08588 whole entry): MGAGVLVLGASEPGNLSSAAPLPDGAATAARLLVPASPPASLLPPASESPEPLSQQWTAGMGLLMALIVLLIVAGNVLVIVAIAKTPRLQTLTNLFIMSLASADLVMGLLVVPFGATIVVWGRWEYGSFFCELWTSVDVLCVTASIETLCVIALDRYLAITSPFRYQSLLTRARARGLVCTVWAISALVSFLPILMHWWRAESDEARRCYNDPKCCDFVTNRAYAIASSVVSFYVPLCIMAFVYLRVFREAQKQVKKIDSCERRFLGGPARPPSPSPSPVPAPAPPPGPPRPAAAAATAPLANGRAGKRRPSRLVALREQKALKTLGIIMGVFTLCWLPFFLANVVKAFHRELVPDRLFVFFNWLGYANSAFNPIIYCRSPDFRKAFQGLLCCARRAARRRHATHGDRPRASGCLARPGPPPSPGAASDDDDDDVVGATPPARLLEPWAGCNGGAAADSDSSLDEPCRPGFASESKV
Sequence of 5-HT1B (P28222 whole entry): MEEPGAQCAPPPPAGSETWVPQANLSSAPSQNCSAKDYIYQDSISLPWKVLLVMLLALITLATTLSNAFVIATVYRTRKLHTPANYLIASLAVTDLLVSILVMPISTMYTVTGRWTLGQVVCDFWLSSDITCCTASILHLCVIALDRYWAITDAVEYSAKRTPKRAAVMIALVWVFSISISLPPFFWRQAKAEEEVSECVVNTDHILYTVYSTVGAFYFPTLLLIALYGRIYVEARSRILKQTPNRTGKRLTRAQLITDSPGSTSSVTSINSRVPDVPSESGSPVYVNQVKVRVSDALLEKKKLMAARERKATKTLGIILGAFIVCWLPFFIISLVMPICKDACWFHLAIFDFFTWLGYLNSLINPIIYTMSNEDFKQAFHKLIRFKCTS
Sequence of β3 (P13945 whole entry): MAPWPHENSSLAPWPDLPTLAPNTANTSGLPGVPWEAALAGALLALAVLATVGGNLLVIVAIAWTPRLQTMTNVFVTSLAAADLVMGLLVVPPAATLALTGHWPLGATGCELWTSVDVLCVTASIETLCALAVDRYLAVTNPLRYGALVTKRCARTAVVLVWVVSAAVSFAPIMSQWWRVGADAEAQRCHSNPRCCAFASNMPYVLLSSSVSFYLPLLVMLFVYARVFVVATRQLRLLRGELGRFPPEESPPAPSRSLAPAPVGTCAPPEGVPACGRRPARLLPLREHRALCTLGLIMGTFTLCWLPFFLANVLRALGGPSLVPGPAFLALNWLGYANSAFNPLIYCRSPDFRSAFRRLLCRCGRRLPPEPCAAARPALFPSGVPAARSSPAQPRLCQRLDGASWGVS
Sequence of β2 (P07550 whole entry): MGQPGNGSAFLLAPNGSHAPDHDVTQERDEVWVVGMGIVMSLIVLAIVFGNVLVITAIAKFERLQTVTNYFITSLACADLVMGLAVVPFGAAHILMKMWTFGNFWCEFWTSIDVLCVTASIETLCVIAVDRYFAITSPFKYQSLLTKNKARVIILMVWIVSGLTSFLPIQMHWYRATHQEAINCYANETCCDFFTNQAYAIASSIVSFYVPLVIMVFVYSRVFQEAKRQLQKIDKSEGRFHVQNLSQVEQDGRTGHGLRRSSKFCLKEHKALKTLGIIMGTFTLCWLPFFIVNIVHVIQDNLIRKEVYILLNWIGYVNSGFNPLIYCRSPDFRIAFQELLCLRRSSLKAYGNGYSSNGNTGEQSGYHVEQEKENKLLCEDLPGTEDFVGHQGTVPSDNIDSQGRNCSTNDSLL

Compound: CCCC(=O)n1cc2c3c(cccc31)C1=C[C@@H](C(=O)N(CC)CC)CN(C)[C@@H]1C2 [1B-LSD, 1-butanoyl-D-lysergic acid diethylamide]
- Ki [1]: 537 ± 85 nM
- Ki [2]: > 10000 nM
- Ki [3]: 345 ± 118 nM
- fold lower affinity than LSD for the 5-HT1A receptor ([3]; human 5-HT1A, relative to LSD): 36 fold
- agonist activity [4]: no agonist activity
- Ki [5]: > 10000 nM
- Ki [6]: > 10000 nM
- Ki [7]: 158 ± 42 nM
- ED50 μg/kg (95% CI) ([8]; hemitartrate (2:1) salt): 457.6 (334.9–625.5) μg/kg
- ED50 nmol/kg (95% CI) [8]: 976.7 (714.8–1335) nmol/kg
- Molar potency (relative to LSD) ([8]; listed as 1-Butanoyl-LSD): 0.14
- Ki [9]: 842 ± 201 nM
- Ki [10]: 1460 nM
- Ki [11]: 1170 nM
- Ki [12]: > 10000 nM
- Ki [13]: > 10000 nM
- Ki [14]: 554 ± 158 nM
- Ki [15]: 20.8 nM
- Ki [16]: 352 ± 64 nM
- Ki [17]: > 10000 nM
- HTR potency as percent of the (molar) potency of LSD [18]: ~ 14%
- Ki [19]: 295 ± 77 nM
- Ki [20]: 2660 nM
- Ki [21]: > 10000 nM
- Ki [22]: > 10000 nM
- Ki [23]: > 10000 nM
- Ki [24]: 3.5 ± 0.6 nM
- Ki [25]: 607 ± 112 nM
- agonist activity [26]: no agonist activity
- EC50 ([27]; EC50, nM, Ca^2+ flux): 45 nM
- Emax % 5-HT ([27]; percent 5-HT maximum response): 35 ± 2 % 5-HT
- Ki [28]: 87.7 ± 9.4 nM
- Ki [29]: 812 ± 267 nM
- Ki [30]: > 10000 nM
- Ki [31]: 2270 nM
- EC50 ([32]; EC50, nM, Ca^2+ flux): 85 nM
- Emax % 5-HT ([32]; percent 5-HT maximum response): 23 % 5-HT and 23 ± 2 % 5-HT
- Ki [33]: > 10000 nM
